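All cell lines were grown in 96-well plates and treated with compound for 48 hours. GI50 marks 50% less growth.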 Activity calls are given as the source filed them. Rule as the data show it: active = GI50 up to about 1.1 µM and inactive = higher.
Legend:
Test in all cases: NCI tumour cell line growth inhibition, 48 h
[1] = test system: MOLT-4
[2] = test system: 786-0
[3] = test system: NCI/ADR-RES
[4] = test system: SK-MEL-2
[5] = test system: LOX IMVI
[6] = test system: SW-620
[7] = test system: BT-549
[8] = test system: SR
[9] = test system: PC-3
[10] = test system: LXFL 529
[11] = test system: RPMI-8226
[12] = test system: CAKI-1
[13] = test system: NCI-H226
[14] = test system: NCI-H23
[15] = test system: KM-20L2
[16] = test system: UO-31
[17] = test system: HL-60
[18] = test system: DLD-1
[19] = test system: SNB-19
[20] = test system: M19-MEL
[21] = test system: NCI-H460
[22] = test system: EKVX
[23] = test system: MDA-MB-435
[24] = test system: SK-OV-3
[25] = test system: K562
[26] = test system: HCT-15
[27] = test system: MDA-MB-231
[28] = test system: DU-145
[29] = test system: Malme-3M
[30] = test system: SNB-78
[31] = test system: HT-29
[32] = test system: SF-295
[33] = test system: TK-10
[34] = test system: T47D
[35] = test system: NCI-H522
[36] = test system: OVCAR-5
[37] = test system: Hs-578T
[38] = test system: COLO 205
[39] = test system: SF-539
[40] = test system: MDA-N
[41] = test system: XF498
[42] = test system: SF-268
[43] = test system: UACC-257
[44] = test system: OVCAR-3
[45] = test system: CCRF-CEM
[46] = test system: RXF 393
[47] = test system: HOP-62
[48] = test system: SNB-75
[49] = test system: U-251
[50] = test system: ACHN
[51] = test system: OVCAR-8
[52] = test system: HCC 2998
[53] = test system: KM12
[54] = test system: UACC-62
[55] = test system: SK-MEL-28
[56] = test system: OVCAR-4
[57] = test system: DMS-273
[58] = test system: A498
[59] = test system: SN12C
[60] = test system: A549
[61] = test system: IGROV-1
[62] = test system: SK-MEL-5
[63] = test system: M14
[64] = test system: HOP-92
[65] = test system: HOP-18
[66] = test system: HCT-116
[67] = test system: DMS-114

O=c1[nH]c2ccccc2nc1CBr
GI50 [1]: 1.87 µM (inactive)
GI50 [2]: 2.02 µM (inactive)
GI50 [3]: 19.7 µM (inactive)
GI50 [4]: 8.24 µM (inactive)
GI50 [5]: 0.912 µM (active)
GI50 [6]: 4.19 µM (inactive)
GI50 [7]: 9.27 µM (inactive)
GI50 [8]: 0.415 µM (active)
GI50 [9]: 12.6 µM (inactive)
GI50 [10]: 1.12 µM (active)
GI50 [11]: 2.06 µM (inactive)
GI50 [12]: 7.33 µM (inactive)
GI50 [13]: 15.8 µM (inactive)
GI50 [14]: 14.6 µM (inactive)
GI50 [15]: 14.1 µM (inactive)
GI50 [16]: 3.87 µM (inactive)
GI50 [17]: 0.213 µM (active)
GI50 [18]: 8.87 µM (inactive)
GI50 [19]: 23.5 µM (inactive)
GI50 [20]: 10.2 µM (inactive)
GI50 [21]: 11.4 µM (inactive)
GI50 [22]: 3.3 µM (inactive)
GI50 [23]: 12.3 µM (inactive)
GI50 [24]: 21.5 µM (inactive)
GI50 [25]: 2.24 µM (inactive)
GI50 [26]: 8.95 µM
GI50 [27]: 11.2 µM (inactive)
GI50 [28]: 19.2 µM (inactive)
GI50 [29]: 2.74 µM (inactive)
GI50 [30]: 16.1 µM (inactive)
GI50 [31]: 6.24 µM (inactive)
GI50 [32]: 12.6 µM (inactive)
GI50 [33]: 13.8 µM (inactive)
GI50 [34]: 12.5 µM (inactive)
GI50 [35]: 0.638 µM (active)
GI50 [36]: 17.7 µM (inactive)
GI50 [37]: 12.1 µM (inactive)
GI50 [38]: 5.78 µM (inactive)
GI50 [39]: 9.23 µM (inactive)
GI50 [40]: 12 µM (inactive)
GI50 [41]: 1.9 µM (inactive)
GI50 [42]: 11.1 µM (inactive)
GI50 [43]: 13.2 µM (inactive)
GI50 [44]: 1.57 µM (inactive)
GI50 [45]: 0.399 µM (active)
GI50 [46]: 1.82 µM (inactive)
GI50 [47]: 21.3 µM (inactive)
GI50 [48]: 12.8 µM (inactive)
GI50 [49]: 9.98 µM (inactive)
GI50 [50]: 12.3 µM (inactive)
GI50 [51]: 13.8 µM (inactive)
GI50 [52]: 20.6 µM (inactive)
GI50 [53]: 2.56 µM (inactive)
GI50 [54]: 8.11 µM (inactive)
GI50 [55]: 12.1 µM (inactive)
GI50 [56]: 4.62 µM (inactive)
GI50 [57]: 1.61 µM (inactive)
GI50 [58]: 21.8 µM (inactive)
GI50 [59]: 9.38 µM (inactive)
GI50 [60]: 14.4 µM (inactive)
GI50 [61]: 4.22 µM (inactive)
GI50 [62]: 10.8 µM (inactive)
GI50 [63]: 10.6 µM (inactive)
GI50 [64]: 3.39 µM (inactive)
GI50 [65]: 6.93 µM (inactive)
GI50 [66]: 8.39 µM (inactive)

O=C1OCCC1C(O)C1c2ccccc2-c2ccccc21 (stereo not drawn)
GI50 [1]: > 100 µM (inactive)
GI50 [2]: > 100 µM (inactive)
GI50 [4]: > 100 µM (inactive)
GI50 [6]: > 100 µM (inactive)
GI50 [8]: > 100 µM (inactive)
GI50 [10]: > 100 µM (inactive)
GI50 [11]: > 100 µM (inactive)
GI50 [12]: > 100 µM (inactive)
GI50 [13]: > 100 µM (inactive)
GI50 [14]: > 100 µM (inactive)
GI50 [16]: > 100 µM (inactive)
GI50 [17]: > 100 µM (inactive)
GI50 [18]: > 100 µM (inactive)
GI50 [19]: > 100 µM (inactive)
GI50 [20]: > 100 µM (inactive)
GI50 [21]: > 100 µM (inactive)
GI50 [22]: > 100 µM (inactive)
GI50 [24]: > 100 µM (inactive)
GI50 [25]: > 100 µM (inactive)
GI50 [29]: > 100 µM (inactive)
GI50 [30]: > 100 µM (inactive)
GI50 [31]: > 100 µM (inactive)
GI50 [32]: > 100 µM (inactive)
GI50 [33]: > 100 µM (inactive)
GI50 [35]: > 100 µM (inactive)
GI50 [36]: > 100 µM (inactive)
GI50 [67]: > 100 µM (inactive)
GI50 [38]: > 100 µM (inactive)
GI50 [41]: 17.8 µM (inactive)
GI50 [42]: > 100 µM (inactive)
GI50 [43]: > 100 µM (inactive)
GI50 [44]: > 100 µM (inactive)
GI50 [45]: > 100 µM (inactive)
GI50 [47]: > 100 µM (inactive)
GI50 [48]: > 100 µM (inactive)
GI50 [49]: > 100 µM (inactive)
GI50 [50]: > 100 µM (inactive)
GI50 [51]: > 100 µM (inactive)
GI50 [53]: > 100 µM (inactive)
GI50 [54]: > 100 µM (inactive)
GI50 [55]: > 100 µM (inactive)
GI50 [56]: > 100 µM (inactive)
GI50 [58]: > 100 µM (inactive)
GI50 [59]: > 100 µM (inactive)
GI50 [60]: > 100 µM (inactive)
GI50 [61]: > 100 µM (inactive)
GI50 [63]: > 100 µM (inactive)
GI50 [64]: > 100 µM (inactive)
GI50 [66]: > 100 µM (inactive)

CC(C)C(C)C(C)(C)P(C)(C)=O (stereo not drawn)
GI50 [4]: > 100 µM (inactive)
GI50 [5]: > 100 µM (inactive)
GI50 [10]: > 100 µM (inactive)
GI50 [13]: > 100 µM (inactive)
GI50 [14]: > 100 µM (inactive)
GI50 [15]: > 100 µM (inactive)
GI50 [16]: > 100 µM (inactive)
GI50 [18]: > 100 µM (inactive)
GI50 [19]: > 100 µM (inactive)
GI50 [20]: > 100 µM (inactive)
GI50 [21]: > 100 µM (inactive)
GI50 [22]: > 100 µM (inactive)
GI50 [24]: > 100 µM (inactive)
GI50 [26]: > 100 µM
GI50 [29]: > 100 µM (inactive)
GI50 [30]: > 100 µM (inactive)
GI50 [31]: > 100 µM (inactive)
GI50 [33]: > 100 µM (inactive)
GI50 [36]: > 100 µM (inactive)
GI50 [67]: > 100 µM (inactive)
GI50 [39]: > 100 µM (inactive)
GI50 [41]: > 100 µM (inactive)
GI50 [42]: > 100 µM (inactive)
GI50 [43]: > 100 µM (inactive)
GI50 [44]: > 100 µM (inactive)
GI50 [46]: > 100 µM (inactive)
GI50 [47]: > 100 µM (inactive)
GI50 [48]: > 100 µM (inactive)
GI50 [49]: > 100 µM (inactive)
GI50 [50]: > 100 µM (inactive)
GI50 [52]: > 100 µM (inactive)
GI50 [53]: > 100 µM (inactive)
GI50 [54]: > 100 µM (inactive)
GI50 [55]: > 100 µM (inactive)
GI50 [56]: > 100 µM (inactive)
GI50 [59]: > 100 µM (inactive)
GI50 [63]: > 100 µM (inactive)
GI50 [66]: > 100 µM (inactive)
